The test system of one experiment is monocarboxylate transporters. As to the kind of experiment: Lactate detection assay in cancer cell lines (intracellular lactate, Lactate-glo). It counts as cell-based. As to conditions: 24 hours incubation. How it is done:
Cells are maintained in their appropriate growth medium (RPMI medium with 2 g/L glucose, 2 mM L-glutamine supplemented with 10% FBS and P/S (growth medium). 15,000-25,000 cells were seeded into white 96-well plates in growth medium and incubated for 24 hours at 37° C. and 5% CO2. A duplicate plate was also seeded for normalization by an MTS assay. Dry weight compound stocks were dissolved to a concentration of 10 mM in 100% DMSO. Compounds were further diluted in the assay medium (Lactate media: 10 mM lactate, 5% FBS, and 1× P/S; Glucose media: RPMI, 5% FBS, and 1× P/S). Growth media was changed 24 hours later to assay medium containing 10 μM compound or vehicle (DMSO) control and incubated for 24 hours. Conditioned media was collected and the cells were washed in 200 μL ice-cold PBS. […] After a 5 minute incubation, 12.5 μL Neutralization solution (1M Trizma) is incubated for 1 minute. Intracellular lactate measurements were performed using a Lactate-glo kit (Promega). Briefly, the lactate detection reagent is mixed immediately before use and 50 μL is pipetted into each well and incubated at room temperature for 1 hour. Lactate is oxidized by enzymatic reactions to generate light. The luminescence is recorded using a Spectramax M5e plate reader and the concentration of lactate is determined using a known concentration of spiked lactate in PBS using GraphPad Prism.
The molecule `CN(Cc1ccccc1)c1cc2oc(=O)c(C(=O)O)cc2s1` [Compound 1.001, 2-(benzyl(methyl)amino)-5-oxo-5H-thieno[3,2-b]pyran-6-carboxylic acid] yielded an IC50 below 1 µM.

Another experiment relates to panel of solid and haemotological tumor cell lines (e.g., Hs578t, SiHa, MDA-MB-231). As to the kind of experiment: MTS cell proliferation assay (cytotoxicity). It is filed as cell-based. Conditions: Table 1 (Group 1), 72-96 hours, 10 mM lactate medium or RPMI 1640 medium, cell line not stated. How it is done:
The anti-proliferation effect of MCT inhibition was investigated across a panel of solid and haemotological tumor cell lines. Cells were routinely cultured in their appropriate growth medium. On day 1, between 10,000-25,000 cells/well (e.g., Hs578t: 15,000 cells/well, SiHa: 10,000 cells/well, and MDA-MB-231: 25,000 cells/well) were plated into 96-well plates. 100 μL. of phosphate buffered saline solution was added to the external wells to prevent media evaporation. Plates were incubated in growth medium overnight at 37° C. in the presence of 5% CO2. On day 2, dry weight compound stocks were dissolved to a concentration of 10 mM in 100% DMSO. Compounds were further diluted in the assay medium; 10 mM lactate medium (without glucose, pyruvate, and glutamine) or RPMI 1640 medium (without pyruvate and glutamine) to generate a final dose range of 1 nM to 10 μM. Growth medium in the 96-well plate was replaced with the assay medium (10 mM lactate medium or RPMI medium or appropriate medium), and compounds were added to each well in the plate at different concentrations via serial dilution or pre-prepared solutions in assay medium. Plates were then incubated at 37° C. in the presence of 5% CO2 for a further 72-96 hours. On day 2-5, assay media was changed to 100 uL of DMEM/F12 and 20 μL of CellTiter 96 AQ MTS reagent was added to each well and the plate was returned to the incubator for 1-2 hours. MTS is bioreduced by NADPH or NADH produced by dehydrogenase enzymes in metabolically active cells into a coloured formazan product that is soluble in tissue culture medium. The amount of coloured formazan product is directly proportional to the number of living cells in culture. The absorbance of the plates was read on a Spectramax M5e plate reader using […] measurement wavelength. Dose response curves were plotted and IC50 values were calculated using GraphPad Prism. The IC50 value is equivalent to the concentration of compound that causes 50% inhibition of growth calculated from the compound treated signal to the vehicle treated signal.
Cytotoxicity of selected compounds is listed in Table 1, where IC50: A=<1 uM; B=1-10 uM; C=>10 uM; and NT=Not Tested.
The molecule `CN(Cc1ccccc1)c1cc2oc(=O)c(C(=O)O)cc2s1` [Compound 1.001, 2-(benzyl(methyl)amino)-5-oxo-5H-thieno[3,2-b]pyran-6-carboxylic acid] displayed an IC50 below 1 µM.

Staying with this experiment, now noted: Table 2 (Group 2), 72-96 hours, 10 mM lactate medium or RPMI 1640 medium, cell line not stated.
Consider `CN(C(=O)Nc1ccccc1F)c1cc2oc(=O)c(C(=O)O)cc2s1` [Compound 2.024, 2-(3-(2-fluorophenyl)-1-methylureido)-5-oxo-5H-thieno[3,2-b]pyran-6-carboxylic acid], for which the IC50 was below 1 µM. Still for that read-out and setting: in the case of `CN(C(=O)Nc1cccc(F)c1)c1cc2oc(=O)c(C(=O)O)cc2s1` [Compound 2.025, 2-(3-(3-fluorophenyl)-1-methylureido)-5-oxo-5H-thieno[3,2-b]pyran-6-carboxylic acid] it was below 1 µM; in that of `COc1ccc(NC(=O)N(C)c2cc3oc(=O)c(C(=O)O)cc3s2)cc1C` [Compound 2.026, 2-(3-(4-methoxy-3-methylphenyl)-1-methylureido)-5-oxo-5H-thieno[3,2-b]pyran-6-carboxylic acid], below 1 µM; in that of `CN(C(=O)NC1CCCC1)c1cc2oc(=O)c(C(=O)O)cc2s1` [Compound 2.027, 2-(3-cyclopentyl-1-methylureido)-5-oxo-5H-thieno[3,2-b]pyran-6-carboxylic acid], below 1 µM.

For `CN(C(=O)c1ccc(-c2ccccc2)cc1)c1cc2oc(=O)c(C(=O)O)cc2s1` [Compound 2.028, 2-(N-methyl-[1,1′-biphenyl]-4-carboxamido)-5-oxo-5H-thieno[3,2-b]pyran-6-carboxylic acid], the half-maximal inhibitory concentration (IC50) was below 1 µM. Same read-out and setting: in the case of `CN(C(=O)c1ccc2cc(F)ccc2c1)c1cc2oc(=O)c(C(=O)O)cc2s1` [Compound 2.029, 2-(6-fluoro-N-methyl-2-naphthamido)-5-oxo-5H-thieno[3,2-b]pyran-6-carboxylic acid] it was below 1 µM. On to `CN(C(=O)c1cccc(-c2ccccc2)c1)c1cc2oc(=O)c(C(=O)O)cc2s1` [Compound 2.030, 2-(N-methyl-[1,1′-biphenyl]-3-carboxamido)-5-oxo-5H-thieno[3,2-b]pyran-6-carboxylic acid], for which the IC50 is below 1 µM.

For `CN(C(=O)c1cccc(-c2ccc(F)cc2)c1)c1cc2oc(=O)c(C(=O)O)cc2s1` [Compound 2.031, 2-(4′-fluoro-N-methyl-[1,1′-biphenyl]-3-carboxamido)-5-oxo-5H-thieno[3,2-b]pyran-6-carboxylic acid], the IC50 is below 1 µM.

In turn, `CN(C(=O)c1ccccc1-c1ccc(F)cc1)c1cc2oc(=O)c(C(=O)O)cc2s1` [Compound 2.032, 2-(4′-fluoro-N-methyl-[1,1′-biphenyl]-2-carboxamido)-5-oxo-5H-thieno[3,2-b]pyran-6-carboxylic acid] returned an IC50 below 1 µM. Same read-out and setting: in the case of `Cc1ccc(NC(=O)N(C)c2cc3oc(=O)c(C(=O)O)cc3s2)cc1` [Compound 2.033, 2-(1-methyl-3-(p-tolyl)ureido)-5-oxo-5H-thieno[3,2-b]pyran-6-carboxylic acid] it was below 1 µM; in that of `CN(C(=O)Nc1cccc(Cl)c1)c1cc2oc(=O)c(C(=O)O)cc2s1` [Compound 2.034, 2-(3-(3-chlorophenyl)-1-methylureido)-5-oxo-5H-thieno[3,2-b]pyran-6-carboxylic acid], below 1 µM; in that of `Cc1ccccc1NC(=O)N(C)c1cc2oc(=O)c(C(=O)O)cc2s1` [Compound 2.035, 2-(1-methyl-3-(o-tolyl)ureido)-5-oxo-5H-thieno[3,2-b]pyran-6-carboxylic acid], below 1 µM. On the same count and under the same terms, in the case of `Cc1cccc(NC(=O)N(C)c2cc3oc(=O)c(C(=O)O)cc3s2)c1` [Compound 2.036, 2-(1-methyl-3-(m-tolyl)ureido)-5-oxo-5H-thieno[3,2-b]pyran-6-carboxylic acid] it was below 1 µM; in that of `CN(C(=O)Nc1ccc(F)cc1F)c1cc2oc(=O)c(C(=O)O)cc2s1` [Compound 2.037, 2-(3-(2,4-difluorophenyl)-1-methylureido)-5-oxo-5H-thieno[3,2-b]pyran-6-carboxylic acid], below 1 µM. The same measure, in the same setting: in the case of `CN(C(=O)Nc1cccc2c1CCCC2)c1cc2oc(=O)c(C(=O)O)cc2s1` [Compound 2.038, 2-(1-methyl-3-(5,6,7,8-tetrahydronaphthalen-1-yl)ureido)-5-oxo-5H-thieno[3,2-b]pyran-6-carboxylic acid] it was below 1 µM; in that of `CN(C(=O)Nc1ccc(F)c(F)c1)c1cc2oc(=O)c(C(=O)O)cc2s1` [Compound 2.040, 2-(3-(3,4-difluorophenyl)-1-methylureido)-5-oxo-5H-thieno[3,2-b]pyran-6-carboxylic acid], below 1 µM; in that of `CN(C(=O)Nc1ccc(Oc2ccccc2Cl)cc1)c1cc2oc(=O)c(C(=O)O)cc2s1` [Compound 2.041, 2-(3-(4-(2-chlorophenoxy)phenyl)-1-methylureido)-5-oxo-5H-thieno[3,2-b]pyran-6-carboxylic acid], below 1 µM.

As to `CN(C(=O)Nc1cc(C(F)(F)F)cc(C(F)(F)F)c1)c1cc2oc(=O)c(C(=O)O)cc2s1` [Compound 2.042, 2-(3-(3,5-bis(trifluoromethyl)phenyl)-1-methylureido)-5-oxo-5H-thieno[3,2-b]pyran-6-carboxylic acid], the half-inhibitory concentration (IC50) was below 1 µM. Same read-out and setting: with `CN(C(=O)NC1CCOCC1)c1cc2oc(=O)c(C(=O)O)cc2s1` [Compound 2.043, 2-(1-methyl-3-(tetrahydro-2H-pyran-4-yl)ureido)-5-oxo-5H-thieno[3,2-b]pyran-6-carboxylic acid] the figure was below 1 µM. For the molecule `CN(C(=O)N1CCOCC1)c1cc2oc(=O)c(C(=O)O)cc2s1` [Compound 2.044, 2-(N-methylmorpholine-4-carboxamido)-5-oxo-5H-thieno[3,2-b]pyran-6-carboxylic acid], the half-inhibitory concentration (IC50) is below 1 µM.

The molecule `CN(C(=O)N1CCCCC1)c1cc2oc(=O)c(C(=O)O)cc2s1` [Compound 2.045, 2-(N-methylpiperidine-1-carboxamido)-5-oxo-5H-thieno[3,2-b]pyran-6-carboxylic acid] yielded an IC50 below 1 µM.

Consider `CN(C(=O)N1CCCC1)c1cc2oc(=O)c(C(=O)O)cc2s1` [Compound 2.046, 2-(N-methylpyrrolidine-1-carboxamido)-5-oxo-5H-thieno[3,2-b]pyran-6-carboxylic acid], for which the 50% inhibitory concentration (IC50) is below 1 µM. The same measure, in the same setting: with `COc1cnccc1NC(=O)N(C)c1cc2oc(=O)c(C(=O)O)cc2s1` [Compound 2.047, 2-(3-(3-methoxypyridin-4-yl)-1-methylureido)-5-oxo-5H-thieno[3,2-b]pyran-6-carboxylic acid] the figure was below 1 µM. On the same count and under the same terms, with `CN(C(=O)Nc1nc(C(C)(C)C)cs1)c1cc2oc(=O)c(C(=O)O)cc2s1` [Compound 2.048, 2-(3-(4-(tert-butyl)thiazol-2-yl)-1-methylureido)-5-oxo-5H-thieno[3,2-b]pyran-6-carboxylic acid] the figure was below 1 µM.

For `CC(C)c1csc(NC(=O)N(C)c2cc3oc(=O)c(C(=O)O)cc3s2)n1` [Compound 2.049, 2-(3-(4-isopropylthiazol-2-yl)-1-methylureido)-5-oxo-5H-thieno[3,2-b]pyran-6-carboxylic acid], the IC50 was below 1 µM.

In turn, `CN(Cc1cccc(-c2ccc(F)cc2)c1)c1cc2oc(=O)c(C(=O)O)cc2s1` [Compound 2.050, 2-(((4′-fluoro-[1,1′-biphenyl]-3-yl)methyl)(methyl)amino)-5-oxo-5H-thieno[3,2-b]pyran-6-carboxylic acid] gave an IC50 below 1 µM.

In the case of `CN(C(=O)Nc1cc(C(C)(C)C)on1)c1cc2oc(=O)c(C(=O)O)cc2s1` [Compound 2.055, 2-(3-(5-(tert-butyl)isoxazol-3-yl)-1-methylureido)-5-oxo-5H-thieno[3,2-b]pyran-6-carboxylic acid], the IC50 is below 1 µM.

For orientation: IC50 means the point on the concentration scale where inhibition reaches its midpoint.

(Values after patent US20220249454A1, “INHIBITORS OF MONOCARBOXYLATE TRANSPORTERS FOR CANCER IMMUNOTHERAPY” (NIROGY THERAPEUTICS, INC., priority 2021, published 2022).)
